The text below walks through data of patent publication US20210308138A1, “TISSUE TRANSGLUTAMINASE MODULATORS FOR MEDICINAL USE” (Aarhus Universitet, priority 2018, published 2021).

The test system of assay [1] is small mesenteric arteries. As to the kind of experiment: Direct relaxation of U46619 pre-contracted small mesenteric arteries, concentration-response curves. Further details: species or system Male Wistar rats. The conditions noted are these: U46619 4·10^−7 mol/L; LDN-27219 10^−8-10^−5 mol/L; Z-DON 10^−8-3·10^−4 mol/L; endothelium intact. How it is done:
(§1) The small mesenteric arteries were prepared in the same way is described in example 1.
The small mesenteric arteries were pre-contracted with the thromboxane analogue, U46619 (4·10^−7 mol/L) and concentration-response curves for TG2 specific inhibitors, LDN-27219 (10^−8-10^−5 mol/L) and Z-DON (10^−8-3·10^−4 mol/L) were constructed. To study the role of the endothelial pathways in LDN-27219 relaxation, concentration-response curves were constructed for it in arteries whose endothelium had been removed mechanically by rubbing the lumen repeatedly with a human scalp hair.

The subject of assay [2] is small mesenteric arteries. As to the kind of experiment: Acetylcholine-induced endothelium-dependent relaxation of phenylephrine pre-contracted small mesenteric arteries, isometric myograph (ex vivo). More on the design: species or system Male Wistar rats. The conditions noted are these: 1 hour incubation; Z-DON 4·10^−5, Boc-DON 10^−5, VA-5 10^−5 mol/L; 12-14 weeks old rats. How it is done: Small mesenteric arteries were mounted in microvascular myographs (Danish Myotechnology, Aarhus, Denmark) using two 40 μm wires and stretched to their optimal diameter for isometric tension recordings, which corresponded to 0.9 times the estimated internal diameter at 100 mmHg of transmural pressure. PSS solution in the myograph bath was heated to 37° C. and continuously bubbled with 5% CO2 in air to maintain pH (7.4). The vessel viability was tested at the beginning of each experiment by measuring the vasoconstrictor responses to a solution with a high K^+ concentration (KPSS), equivalent to PSS except that NaCl was exchanged for KCl on an equimolar basis, giving a final concentration of 123.7 mmol/L K^+ and the presence of endothelium was confirmed by addition of acetylcholine (ACh) (10^−5) after pre-constriction with noradrenaline (5·10^−6 mol/L), arteries with less than 75% of relaxation were discarded.
Mesenteric arteries from rats of different age were incubated with (10^−6 mol/L) LDN-27219 or vehicle for 25 minutes and pre-contracted with phenylephrine (Phe) (10^−5 mol/L). Then cumulative addition of acetylcholine (ACh) caused the relaxation of the mesenteric arteries and the concentration-response curves were constructed.
Rats of 5-7 weeks age, about 12 weeks age, and more than 30 weeks of age were tested respectively. The results of the isometric tension studies are shown in FIGS. 1, A), B) and C) respectively, each representing a different their age group.
as §1

Another assay concerns the target T1, purified human TG2 (Homo sapiens, UniProt P21980).
T1 construct: purchased Zedira (Darmstadt, Germany); host or cells: insect cells
T1 sequence (P21980 1-687): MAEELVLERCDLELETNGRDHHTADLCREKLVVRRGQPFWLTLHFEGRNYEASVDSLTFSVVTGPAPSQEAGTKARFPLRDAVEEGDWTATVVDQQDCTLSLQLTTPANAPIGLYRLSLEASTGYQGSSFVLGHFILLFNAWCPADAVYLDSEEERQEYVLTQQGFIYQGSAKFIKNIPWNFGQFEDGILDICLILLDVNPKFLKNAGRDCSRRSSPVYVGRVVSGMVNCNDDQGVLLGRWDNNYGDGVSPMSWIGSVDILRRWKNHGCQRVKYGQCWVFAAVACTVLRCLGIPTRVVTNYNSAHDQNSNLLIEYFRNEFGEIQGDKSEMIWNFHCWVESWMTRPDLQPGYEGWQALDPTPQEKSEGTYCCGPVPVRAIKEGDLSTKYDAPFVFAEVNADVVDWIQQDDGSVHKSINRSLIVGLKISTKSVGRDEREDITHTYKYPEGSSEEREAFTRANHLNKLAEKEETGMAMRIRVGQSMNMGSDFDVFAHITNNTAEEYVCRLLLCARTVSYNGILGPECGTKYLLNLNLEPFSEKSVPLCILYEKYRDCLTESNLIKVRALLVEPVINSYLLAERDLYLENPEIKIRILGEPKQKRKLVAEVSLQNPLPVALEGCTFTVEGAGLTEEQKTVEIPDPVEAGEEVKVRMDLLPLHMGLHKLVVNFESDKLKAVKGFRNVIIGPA
As to the kind of experiment: Conformational shift assay by native polyacrylamide gel electrophoresis (native-PAGE). The conditions noted are these: TG2 2.5 uM; 1 mM LDN-27219, 1 mM GTPNa2, or 0.2 mM Z-DON with CaCl2. The assay is classed as biochemical. The procedure: For the conformational shift assay using native polyacrylamide gel electrophoresis (native-PAGE) purified and functional human TG2 protein produced in insect cells was obtained from Zedira (Darmstadt, Germany).
Native gel electrophoresis experiments were performed using a method similar to those previously described (Pinkas D M, et al., PLoS Biol, 2007, 5(12), 2788-2796.) (Iversen R, et al., Proc Natl. Acad. Sci., 2014, 111(43), 17146-17151). Briefly, TG2 (2.5 uM) was incubated for 30 min at room temperature in preincubation buffer (75 mM imidazole, 0.5 mM EDTA, 5 mM DTT [pH 7.2], 10% DMSO) with or without 1 mM GTPNa2 or 1 mM LDN-27219 before adding Native Sample Buffer for Protein Gels (Bio-Rad) or in preincubation buffer with 0.2 mM Z-DON 30 min prior addition of 5 mM of CaCl2 for 20 min. Native buffer was added (dilution 1:2), and 1.5 ug of protein was loaded onto a 4-20% Criterion™ TGX Stain-Free™ gel (Bio-Rad) using Tris-glycine as the running buffer. For 75 min, 125 V was applied at 4° C. The bands were visualized using stain-free technology by exposing the gels to UV light and capturing the image using a PXi 4 Touch image analysis system (Syngene). Band intensity analysis was carried out using GeneTools 4 software (Syngene).

The test system of another assay is Male Wistar rats. As to the kind of experiment: Mean arterial pressure (MAP) in vivo measurement after intrajugular infusion. To be noted: VA-5 single dose 1 mg/kg, intrajugular infusion during 3 minutes; adult and older rats. How it is done: For ‘in vivo’ experiments Wistar rats of different age were fasted 8 h before anesthesia with 35 mg/kg of S-ketamine and 50 mg/kg of pentobarbital sodium administered intraperitoneally.
Male Wistar rats with 12-14 and 30-35 weeks of age were anesthetized with s-ketamine (35 mg/kg) and pentobarbital (50 mg/kg) and placed on a heated blanket to maintain body temperature at 37° C. ECG needles were installed for electrocardiographic measurements and a solid state catheter (Millar Inc, Houston, USA) was introduced into the carotid artery to measure MAP. MAP and electrocardiographic data was continuously recorded on a computerized data acquisition system (PowerLab, ADInstruments). Adequate depth of anesthesia was checked periodically by the absence of the toe pinch withdrawal effect and ⅓ of the initial dose of anesthetics was administered intraperitoneally when needed (usually each 1½ h). Changes in MAP and electrocardiographic signal in response to intrajugular infusion during 3 minutes of different doses of LDN-27219 and the corresponding vehicle (PEG-400) were studied.
The Area Under the Curve (AUC) was calculated using Graphpad Prism 5.1 (GraphPad Software, San Diego, Calif., USA) for each response to the change in MAP that was collected during the experiments in example 3. The AUC gives information about the maximal response, and about the duration of the effect.
Rats of different age in these experiments were anesthetized, prepared and catheterized as described in Example 3.

Assay [3] relates to vascular smooth muscle cells (VSMCs) potassium currents. Put plainly: Whole-cell patch-clamp of K+ outward currents in isolated vascular smooth muscle cells. The assay is classed as cell-based, rat. To be noted: LDN-27219 3·10^−5 mol/L 12 min; VA-5 5·10^−5 mol/L one hour incubation. The procedure: For isolation of VSMCs, rat mesenteric arteries were dissected as previously described, opened longitudinally and stored in ice-cold dissociation solution containing (mmol/L): 119 NaCl, 4.7 KCl, 1.18 KH2PO4, 1.17 MgSO4, 24.9 NaHCO3, 0.027 EDTA, and 11 glucose, pH=7.4. Arteries were then equilibrated during 10 min in a dissociation solution with bovine albumin serum (BSA; 1 mg/mL) at 37° C. and then exposed to the same solution supplemented with papain (0.5 mg/mL; Worthington Biochemical Corp., Lakewood, N.J., USA) and dithiothreitol (DTT; 1 mg/mL) at 37° C. for 8 min. Arteries were then washed in ice-cold dissociation solution and moved to dissociation solution containing BSA (1 mg/mL) and collagenase (0.7 mg/mL type F and 0.4 mg/mL type H; Worthington Biochemical Corp.) at 37° C. for 3 min. […]
Membrane currents were recorded under the whole-cell configuration of the patch-clamp technique using an Axon Multiclamp 700A amplifier (Axon instruments, Molecular Devices, CA, USA). […] Current-voltage relations were determined using 600 ms voltage ramps from −100 to 160 mV and a holding potential (Vh) of −65 mV for SMCs.
Amplitudes of K^+-outward currents were measured in control conditions and 12 min after the addition of LDN-27219 (3·10^−5 mol/L) to the extracellular solution by a perfusion system.
For orientation: The patch-clamp technique gives a direct electrical read-out from membranes.

In assay [4] the test system is small mesenteric arteries. To be noted: M. Engholm et al., British J. Pharm. (2016), 173, 839-855; cited from earlier work.

For the compound “Z-DON-Val-Pro-Leu-OMe [reference compound]”, in assay [1], the “relaxation of U46619 pre-contracted arteries” value was “failed to induce any vasodilation”. Also, the “ACh relaxation compared to the vehicle” value in assay [2] was “slight inhibition of ACh relaxation”. The “relative abundance of closed / open conformation of TG2” value on purified human TG2 is “force its open conformation”.

On to `Nc1nc2c(ncn2[C@@H]2O[C@H](COP(=O)([O-])OP(=O)([O-])OP(=O)([O-])[O-])[C@@H](O)[C@H]2O)c(=O)[nH]1.[Na+].[Na+].[Na+].[Na+]` [GTP, guanosine 5′-triphosphate sodium salt], for which the “relative abundance of closed / open conformation of TG2” value at purified human TG2 was “completely force TG2 to its closed conformation”. Consider `C=CC(=O)NCCCC[C@H](NC(=O)OCc1ccccc1)C(=O)N1CCN(C(=O)c2cc3ccc(O)cc3oc2=O)CC1` [VA-5, (S)-Benzyl (6-acrylamido-1-(4-(7-hydroxy-2-oxo-2H-chromene-3-carbonyl)piperazin-1-yl)-1-oxohexan-2-yl)carbamate, reference compound], for which the “mean blood pressure (MAP)” value in the assay with Male Wistar rats was “did not produce any change in the mean blood pressure”. Also, in assay [2], the “ACh relaxation compared to the vehicle” value is listed as “slight inhibition of ACh relaxation”. In assay [3], the “potassium currents compared to control conditions” value was “significantly smaller potassium currents”. Turning to `NCCSSCCN` [cystamine], in assay [4], the “effects on endothelial pathways” value is reported as “lacked effects on endothelial pathways”. For “Boc-DON-Gln-Ile-Val-OMe [reference compound]”, in assay [2], the “ACh relaxation compared to the vehicle” value was “no significant effect”.
